Measured values as given in PMC6290777, “Inhalation of the prodrug PI3K inhibitor CL27c improves lung function in asthma and fibrosis” (Nature Communications, 2018).

Columns and labels:
Format in all cases: in vivo, BALB/c mice
[1] = system: OVA-induced acute allergic asthma; test: OVA-induced acute allergic asthma model; conditions: systemic treatment, i.p.
Procedure: On Days 1 and 14, BALB/c mice (6–8 weeks) received an intraperitoneal injection (i.p.) of a solution containing 0.5 mg/ml OVA and 5 mg/ml Alum (described in Fig. 2). Untreated controls were injected with a solution of 5 mg/ml Alum. […] Untreated control groups included mice challenged with PBS alone. On day 29, mice were sacrificed, and samples were collected for further analysis.
(§1) BALF was performed to obtain leukocytes from alveolar space. The trachea was exposed and a 1.7-mm-outside-diameter polyethylene catheter was inserted. BAL was performed by washing the lungs three-times with three different 500 µl aliquots of PBS. BALF samples were centrifuged at 600 × g for 10 min at 4 °C on a histology glass slide and stained with Diff Quick (MICROPTIC, #DQ-ST). The number of leukocytes and differential counts of different population were obtained evaluating the percentage leukocyte populations over the total cell number.
(§2) IL-5, IL-13, eotaxin, TGF-β, KC, IL-17A, and MCP-1 levels in the BALF and anti-OVA IgE levels in serum were measured by ELISA technique using commercial DuoSet kits R&D Systems according to the instructions of the manufacturer. Results were expressed in levels of cytokines per ml of […] (pg/ml) or arbitrary units (A.U.).
Immunohistochemistry for CD18 was performed using the streptavidin-biotin-peroxidase method in formalin-fixed, paraffin-embedded tissue sections (5 µm thick) mounted on poly-L-lysine-coated microscope slides. Lung cross-sections were deparaffinized and rehydrated through xylene and graded alcohols. After antigen retrieval, endogenous peroxidase was blocked (15 min) with 3% (v/v) hydrogen peroxide and washed in phosphate-buffered saline (PBS). Sections were incubated overnight (4 °C) with primary rabbit anti-CD18 antibody (Acris Antibodies GmbH, Germany, Cat. Number B0842-1) diluted 1:400 in PBS plus bovine serum albumin (PBS-BSA) or rabbit anti/PAkt (S473) diluted 1:100 in PBS/BSA. The slides were then incubated with biotinylated goat anti-rabbit antibody (Dako Agilent Pathology Solution, USA) diluted 1:1000 in PBS/BSA. After washing, the slides were incubated with avidin-biotin-horseradish peroxidase conjugate (Dako Agilent Pathology Solution, USA) for 30 min, according to the manufacturer’s instructions. CD18 and PAkt-positive cells were visualized with the chromogen 3,3′-diaminobenzidine (DAKO liquid DAB + substrate chromogen system, CA, USA). Slides were counterstained with Harry’s hematoxylin, dehydrated in a graded alcohol series, cleared in xylene, and cover slipped.
Lung, liver, and heart samples were collected for western blot detection of akt phosphorilation levels. Protein samples were resolved by 10% SDS-PAGE and transferred on to PVDF (Immobilon™-P) membranes. The membranes were blocked with 5% BSA in 1x TBS with 0.3% Tween 20 for 30 min at […]. Then, the membranes were incubated overnight at 4 °C with primary antibodies (phosphorylated Akt serine 473, 1:1000, Cell Signaling Technology, Cat. Number 4060) and 1 h with HRP-conjugated secondary antibody (1:10000). The blots were visualized in ECL solution for 1 min and images were captured on Luminescent Image Analyser (ChemiDoc Imaging Systems, Bio-Rad Laboratories, USA). For loading control, the blots were striped and reassessed with pan Akt (1:1000) antibody. For quantification, specific phosphorylation was calculated as the ratio of signals for phosphorylated Akt to the signal of total Akt detected. Values of unstimulated samples were set to 1.0. Uncropped scans of the most important blots are provided as a supplementary figure in the Supplementary Information (Supplementary Fig. 15).

[2] = system: OVA-induced chronic allergic asthma; test: OVA-induced chronic allergic asthma model; conditions: CL27c 2 mg/ml aerosol or dexamethasone 5 mg/kg
Procedure: as §1
(§3) Mice were anesthetized with a subcutaneous injection of ketamine and xylazine (130 mg/Kg ketamine and 8.5 mg/Kg xylazine) to maintain spontaneous breathing under anesthesia. Mice were tracheostomized, placed in a body plethysmograph and connected to a computer-controlled ventilator (Forced Pulmonary Maneuver System®, Buxco Research Systems©, Wilmington, North Carolina USA). First, an average breathing frequency of 160 breaths/min was imposed to the anesthetized animal by a pressure-controlled ventilation until a regular breathing pattern and complete expiration at each breathing cycle was obtained. Under mechanical respiration, respiratory flow and airway pressure were measured to compute dynamic compliance (Cdyn) and lung resistance (RL). To measure the TLC, pressure–volume maneuvers were performed, where lungs were inflated to a standard pressure of +30 cm H2O and then let slowly exhale until a negative pressure of −30 cm H2O was reached. To measure the FEV Fast-Flow Volume maneuvers was performed. In this maneuver, lungs were first inflated to +30 cm H2O (TLC) and, immediately, a negative pressure (−30 cm H2O) was applied in order to enforce expiration. To evaluate AHR, the same mice used in previous maneuvers (basal condition) received Metacholine, 1 mg/Kg (Acetyl-β-methylcholine chloride, A-2251, Sigma-Aldrich St.Louis, MO,USA) i.v., and 20 sec after, a new set of maneuvers were conducted to assess RL changes. Suboptimal maneuvers were rejected and for each test in every single mouse at least three acceptable maneuvers were conducted to obtain a reliable mean for all numeric parameters.
On day 1, BALB/c mice received systemic immunization by subcutaneous injection of 10 µg of chicken egg ovalbumin (OVA grade V, >98% pure; Sigma, St Louis, MO) diluted in 2 mg/mL Al(OH)3 followed by a booster injection at the day 14 (described in fig. 3). Nasal challenges were performed starting at the day 28, by inhalational exposure to aerosolised ovalbumin (1% ovalbumin in saline 0,9%) for 20 min per day, in alternated days during 16 days (day 28, 30, 32, 34, 36, 38, 40, 42 and 44). At the same time, mice received daily treatment from day 28 to 44 with CL27c (2 mg/ml dissolved in 0.5 % tylaxopol/saline solution, aerosolized for 30′) or vehicle (0.5% tyloxapol/saline solution, aerosolized for 30′), or dexamethasone (5 mg/kg i.p. injection). Untreated control groups included mice challenged with PBS alone. On day 45, mice were sacrificed, and samples were collected for further analysis.
as §2
The left lung was removed and fixed in 4% neutral phosphate-buffered formalin (pH 7.4)[10]. The tissues were dehydrated gradually in ethanol, embedded in paraffin, cut into 4 µm sections, stained with H&E, Gomori’s trichrome and periodic acid schiff (PAS), and examined under light microscopy by a pathologist in a double blinded manner. Images of lung sections were captured with a digital camera (Optronics DEI-470) connected to a microscope (Olympus IX70) with a magnification of ×40 or ×100. […]

[3] = system: glucocorticoid-resistant neutrophilic asthma; test: Glucocorticoid-resistant asthma model; conditions: CL27c 2 mg/ml aerosol; dexamethasone 5 mg/kg i.p.
Procedure: as §1, §3, §2
On day 1 BALB/c mice received systemic immunization by subcutaneous injection of 20 µg of chicken egg ovalbumin (OVA grade V, >98% pure; Sigma, St Louis, MO) in saline, emulsified in 75 µL CFA (Complete Freund’s Adjuvant; Sigma-Aldrich) (Figure 5)[52]. On days 25–28 mice were exposed to aerosolised ovalbumin (1% in saline) for 20 min per day. Mice were exposed during 30 min to aerosolized CL27c (2 mg/ml dissolved in 0.5 % tylaxopol/saline solution) or vehicle (0.5% tyloxapol/saline solution), or to systemic treatment with dexamethasone (5 mg/kg i.p. injection). Untreated control groups included mice challenged with PBS alone. On day 29, mice were sacrificed, and samples were collected for further analysis.
The left lung was removed and fixed in 4% neutral phosphate-buffered formalin (pH 7.4)[10]. The tissues were dehydrated gradually in ethanol, embedded in paraffin, cut into 4 µm sections, stained with H&E, Gomori’s trichrome and periodic acid schiff (PAS), and examined under light microscopy by a pathologist in a double blinded manner. Images of lung sections were captured with a digital camera (Optronics DEI-470) connected to a microscope (Olympus IX70) with a magnification of ×40 or ×100. Inflammation was scored according to modification of existing protocols[53] and to the histopathology criteria reported in Supplementary Table 4.

Structure (SMILES): C[C@@H]1C[C@H]2[C@@H]3CCC4=CC(=O)C=C[C@]4(C)[C@@]3(F)[C@@H](O)C[C@]2(C)[C@@]1(O)C(=O)CO [Dexamethasone, reference compound]
- BALF accumulation of inflammatory cells [1]: significantly reduced this infiltration
- accumulation of inflammatory cells in peribronchial and perivascular spaces [2]: significantly decreased
- lung function: lung resistance (RL) and dynamic compliance (Cdyn) [2]: normalize lung function
- peribronchial fibrosis (fibrotic airway remodeling) [2]: significantly reduced
- histopathology: overall score of lung damage / tissue inflammation [3]: failed to provide an effect
